Test results from US20260258003A1, “SLACK-ACTIVATING COMPOUNDS AND THEIR MEDICAL USE” (Johann Wolfgang Goethe-Universität Frankfurt am Main, priority 2023, published 2026).

Legend:
[1] = biological target: T1, human Slack (Homo sapiens, UniProt Q5JUK3); experiment: FluxOR potassium ion channel assay in HEK-Slack cells; format: cell-based; conditions: Na+ free buffer with 2 mM Ca2+, 2 mM Mg2+, 0.03% DMSO, mean with 95% confidence interval; for EC50: read-out: FluxOR assay EC50; for Emax: read-out: FluxOR assay EMAX (% relative to Loxapine)
T1 construct: host or cells: HEK293
T1 sequence (Q5JUK3 1-1230): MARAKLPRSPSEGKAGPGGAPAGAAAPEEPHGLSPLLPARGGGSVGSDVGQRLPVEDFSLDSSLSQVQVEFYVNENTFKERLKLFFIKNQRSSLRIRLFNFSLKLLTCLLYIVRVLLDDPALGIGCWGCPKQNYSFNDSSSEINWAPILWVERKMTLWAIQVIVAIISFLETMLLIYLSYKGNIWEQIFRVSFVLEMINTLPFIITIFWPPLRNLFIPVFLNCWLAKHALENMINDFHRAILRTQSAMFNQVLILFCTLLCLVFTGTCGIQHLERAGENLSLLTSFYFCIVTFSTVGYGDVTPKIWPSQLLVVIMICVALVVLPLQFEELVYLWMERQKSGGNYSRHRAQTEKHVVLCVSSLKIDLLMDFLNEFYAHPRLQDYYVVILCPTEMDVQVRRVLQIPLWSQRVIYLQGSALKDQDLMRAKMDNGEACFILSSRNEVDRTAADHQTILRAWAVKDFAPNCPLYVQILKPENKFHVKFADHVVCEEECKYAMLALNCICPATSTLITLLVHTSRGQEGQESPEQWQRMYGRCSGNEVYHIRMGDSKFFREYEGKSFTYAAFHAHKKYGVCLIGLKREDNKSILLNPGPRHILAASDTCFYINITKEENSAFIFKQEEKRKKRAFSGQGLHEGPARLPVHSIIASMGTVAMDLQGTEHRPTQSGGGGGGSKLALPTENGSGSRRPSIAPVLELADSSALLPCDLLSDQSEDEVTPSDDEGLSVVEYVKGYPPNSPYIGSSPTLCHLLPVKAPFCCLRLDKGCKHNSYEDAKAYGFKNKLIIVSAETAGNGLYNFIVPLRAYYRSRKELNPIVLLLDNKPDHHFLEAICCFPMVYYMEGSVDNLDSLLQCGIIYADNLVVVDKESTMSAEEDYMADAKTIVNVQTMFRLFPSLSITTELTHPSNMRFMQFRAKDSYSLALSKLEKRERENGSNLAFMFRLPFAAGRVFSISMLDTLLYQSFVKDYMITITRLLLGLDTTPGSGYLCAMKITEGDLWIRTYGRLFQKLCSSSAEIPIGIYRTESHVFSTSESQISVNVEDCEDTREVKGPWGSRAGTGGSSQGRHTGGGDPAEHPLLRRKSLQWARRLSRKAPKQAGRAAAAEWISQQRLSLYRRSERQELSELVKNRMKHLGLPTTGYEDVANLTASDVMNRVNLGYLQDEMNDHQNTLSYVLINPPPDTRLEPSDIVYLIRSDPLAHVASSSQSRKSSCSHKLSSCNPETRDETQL
Procedure: For that purpose, cultured HEK293 cells stably expressing human Slack (herein referred to as HEK-Slack cells) were incubated with compounds in a Na^+ free buffer to prevent compound-independent Slack activation by monovalent cations^7,19.
In detail, in these experiments, the Slack-activating efficacy and potency of the novel compounds was determined using a commercial FluxOR™ Potassium Ion Channel Assay (Invitrogen). HEK293 cells stably expressing human Slack (herein referred to as HEK-Slack cells) were plated at a density of 50,000 cells per well of a poly-D-lysine coated (75 μg/mL, Sigma Aldrich) 96-well, black-walled microplate with clear bottom (Greiner Bio-One) in DMEM containing 10% FBS and 1% penicillin/streptomycin 24 hours prior to assaying.
On the experiment day, cells were loaded with FluxOR™ dye according to the manufacturer's protocol. A Na^+-free assay buffer containing 140 mM choline chloride, 5 mM KCl, 2 mM CaCl2), 2 mM MgSO4, 10 mM HEPES, 5.55 mM glucose, adjusted to pH 7.4 with KOH, was used. To reduce background fluorescence all assay components were complemented by 10% BackDrop™ Background Suppressor (Invitrogen). […]
After washing steps, cells were incubated with compounds for 30 min at 37° C. All compounds were prepared as a 33.3 mM DMSO stock and diluted at the experimental day to a final concentration of 100, 50, 25, 12.5, 6.25, and 3.125 μM in assay buffer containing […] DMSO. […] After stimulation with Tl2SO4 solution, the fluorescence was measured over 100 s (excitation 485 nm, emission 525 nm) using an Infinite M200 Microplate Reader (Tecan). Assays run in triplicate and the ratio to baseline fluorescence was calculated for all time points. Dose-response curves comprising six concentrations were performed in triplets using fluorescence/fluorescenceBaseline ratios at the 100th second.

[2] = test system: chloroquine-induced scratching behavior of mice; experiment: Chloroquine-induced itch model, topical application of creme; format: in vivo; conditions: 5% in hydrophilic creme (Basiscreme DAC), topical 30 min prior to s.c. chloroquine
Procedure: Animals: Experiments were performed in 8-16 week-old C57BL/6N mice (Charles River, Sulzfeld, Germany) of either sex. The animals were housed under a 12 h light/dark cycle with access to food and water ad libitum. All experiments adhered to the Animal Research: Reporting on In Vivo Experiments (ARRIVE) guidelines and were approved by and conducted in accordance with the regulations of the local Animal Welfare authorities (Regierungspräsidium Darmstadt, Germany; approval number V54-19c20/15-FR/2011). All behavioral studies were conducted during the light cycle of the day at room temperature (20-24° C.) by an observer blinded for the treatment of the animals.
Drug formulation: A creme formulation of Compound 6 and Compound 21 was prepared by mixing a hydrophilic creme (Basiscreme DAC) with 5% of each Slack activator.
Behavioral assessment: Three to four days before the day of the experiment, the fur on the dorsolateral aspect of the neck was shaved under brief isoflurane anesthesia. On the testing day, Compound 6 creme, Compound 21 creme, or creme vehicle were applied topically on the shaved region of the neck under brief isoflurane anesthesia and the mice were habituated to a Plexiglas cylinder (30 cm in diameter) for 30 min immediately thereafter. […] The number of scratching bouts directed towards the nape of the neck was assessed over 30 min by videotaping.

[3] = test system: heart rate and breath rate of mice; experiment: Pulse oximetry on conscious, freely moving mice; format: in vivo; conditions: 10 mg/kg i.p., observation period of 30 min
Procedure: Finally, potential side effects of Compound 6 were assessed by measuring cardiovascular functions by pulse oximetry.

## O=c1nc(CN2CCN(C3=Nc4ccccc4Oc4ccc(C(F)(F)F)cc43)CC2)[nH][nH]1 [Compound 11, 5-((4-(2-(Trifluoromethyl)dibenzo[b,f][1,4]oxazepin-11-yl)piperazin-1-yl)methyl)-1,2-dihydro-3H-1,2,4-triazol-3-one]
[1]
  EC50: 10.7 µM
  Emax: 199%

## O=c1nc(CN2CCN(C3=Nc4cc(F)ccc4Oc4ccc(C(F)(F)F)cc43)CC2)[nH][nH]1 [Compound 18, 5-((4-(8-Fluoro-2-(trifluoromethyl)dibenzo[b,f][1,4]oxazepin-11-yl)piperazin-1-yl)methyl)-1,2-dihydro-3H-1,2,4-triazol-3-one]
[1]
  EC50: 11.2 µM
  Emax: 127%

## O=c1nc(CN2CCN(C3=Nc4cc(F)ccc4Oc4ccc(Cl)cc43)CC2)[nH][nH]1 [Compound 19, 5-((4-(2-Chloro-8-fluorodibenzo[b,f][1,4]oxazepin-11-yl)piperazin-1-yl)methyl)-1,2-dihydro-3H-1,2,4-triazol-3-one]
[1]
  EC50: 21.1 µM
  Emax: 117%

## O=c1nc(CN2CCCN(C3=Nc4ccccc4Oc4ccc(C(F)(F)F)cc43)CC2)[nH][nH]1 [Compound 20, 5-((4-(2-(Trifluoromethyl)dibenzo[b,f][1,4]oxazepin-11-yl)-1,4-diazepan-1-yl)methyl)-1,2-dihydro-3H-1,2,4-triazol-3-one]
[1]
  EC50: 26.2 µM
  Emax: 129%

## OCCN1CCN(C2=Nc3cc(F)ccc3Oc3ccc(C(F)(F)F)cc32)CC1 [Compound 21, 2-(4-(8-Fluoro-2-(trifluoromethyl)dibenzo[b,f][1,4]oxazepin-11-yl)piperazin-1-yl) ethan-1-ol]
[2]
  chloroquine-induced scratching behavior after topical application: significantly ameliorated scratching behavior
[1]
  EC50: 10.5 µM
  Emax: 264%

## CN1CC[C@]23c4c5ccc(O)c4O[C@H]2[C@@H](O)C=C[C@H]3[C@H]1C5 [morphine, reference compound]
[3]
  breath rate: significantly reduced
  heart rate: significantly reduced
